Tests used:
[1] = system: transplanted tumor of human esophageal cancer cell TE-1; experiment: TE-1 transplanted tumor in nude mice
[2] = system: transplanted tumor of human non-small cell lung cancer cell A549; experiment: A549 transplanted tumor in nude mice; details: for Tumor Volume (mm3) (d 1): d1
Summary of the method: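 Nude mice inoculated s.c. at right armpit with A549 cells in matrigel (0.2 ml at 1×10^7/ml); at tumor ≥100 mm^3, randomized (n=6/group) and dosed intragastrically at 25, 50 or 100 mg/kg daily for 30 days. Tumor diameters measured every 3 days (V=a×b^2/2, RTV, T/C%); tumors weighed at sacrifice for inhibition rate versus model group.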

[3] = system: transplanted tumor of human lymphoma cell U937; experiment: U937 transplanted tumor in nude mice; details: for Tumor Volume (mm3) (d 1): d1
Summary of the method: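 Nude mice inoculated subcutaneously (right armpit) with U937 cells in matrigel (1×10^7/ml, 0.2 ml); at tumors ≥100 mm^3, 6 per group dosed intragastrically at 25, 50 or 100 mg/kg for 30 days. Volume (a×b^2/2) every 3 days gave RTV and T/C; tumor-weight inhibition versus model group at sacrifice.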

[4] = TE-1, 12.5 mg/kg (low dose) i.g. 30 days
[5] = TE-1, 25 mg/kg (medium dose) i.g. 30 days
[6] = TE-1, 50 mg/kg (high dose) i.g. 30 days
[7] = A549, high dose (100 mg/kg in method) i.g. 30 days
[8] = A549, low dose (25 mg/kg in method) i.g. 30 days
[9] = A549, medium dose (50 mg/kg in method) i.g. 30 days
[10] = U937, high dose (100 mg/kg in method) i.g. 30 days
[11] = U937, low dose (25 mg/kg in method) i.g. 30 days
[12] = U937, medium dose (50 mg/kg in method) i.g. 30 days

CCC(=O)O[C@@H]1CC(=O)O[C@H](C)C/C=C/C=C/[C@H](O[C@H]2CC[C@H](N(C)C)[C@@H](C)O2)[C@H](C)C[C@H](CC=O)[C@H](O[C@@H]2O[C@H](C)[C@@H](O[C@H]3C[C@@](C)(O)[C@@H](OC(=O)CC(C)C)[C@H](C)O3)[C@H](N(C)C)[C@H]2O)[C@H]1OC [Isovaleryl spiramycin III, isovaleryl spiramycin III]
Inhibition Rate (tumor growth inhibition rate) [1, 4]: 22.64% | Relative Tumor Proliferation Rate (T/C) [1, 4]: 66.52% | Relative Tumor Volume (RTV) [1, 4]: 6.03 ± 5.27 | Tumor Volume (d 1) [1, 4]: 173.45 ± 63.55 mm3 | Tumor Volume (d 30) [1, 4]: 1254.78 ± 637.73 mm3 | Tumor Weight [1, 4]: 1.21 ± 0.53 g | Inhibition Rate (tumor growth inhibition rate) [1, 5]: 40.17% | Relative Tumor Proliferation Rate (T/C) [1, 5]: 50.71% | Relative Tumor Volume (RTV) [1, 5]: 5.02 ± 6.81 | Tumor Volume (d 1) [1, 5]: 206.72 ± 79.72 mm3 | Tumor Volume (d 30) [1, 5]: 1140.10 ± 819.08 mm3 | Tumor Weight [1, 5]: 0.94 ± 0.39 g | Inhibition Rate (tumor growth inhibition rate) [1, 6]: 65.46% | Relative Tumor Proliferation Rate (T/C) [1, 6]: 30.72% | Relative Tumor Volume (RTV) [1, 6]: 3.60 ± 1.29 | Tumor Volume (d 1) [1, 6]: 331.09 ± 208.02 mm3 | Tumor Volume (d 30) [1, 6]: 1106.23 ± 865.11 mm3 | Tumor Weight [1, 6]: 0.54 ± 0.22 g | tumor volume and relative tumor volume compared with the model group ([1]; TE-1, low, medium and high doses, P<0.05): significantly lower | mouse weight compared with the model group ([1]; mouse, in vivo): no significant changes | Relative Tumor Proliferation Rate (T/C) [2, 7]: 33.04% | tumor growth inhibition rate [2, 7]: 66.53% | Relative Tumor Proliferation Rate (T/C) [2, 8]: 65.93% | tumor growth inhibition rate [2, 8]: 37.99% | tumor volume and relative tumor volume compared with the model group ([2]; A549, low, medium and high doses, P<0.05): significantly lower | Relative Tumor Proliferation Rate (T/C) [2, 9]: 47.25% | tumor growth inhibition rate [2, 9]: 55.95% | Inhibition Rate (%) ([2]; A549 nude mice, 25 mg/kg): 37.99% | Relative Tumor Proliferation Rate (T/C) ([2]; A549 nude mice, 25 mg/kg): 65.93% | Relative Tumor Volume (RTV) ([2]; A549 nude mice, 25 mg/kg): 10.70 ± 2.64 | Tumor Weight ([2]; A549 nude mice, 25 mg/kg): 1.49 ± 0.42 g | Tumor Volume (mm3) (d 1) ([2]; A549 nude mice, 25 mg/kg): 113.96 ± 6.85 mm3 | Tumor Volume (mm3) (d30) ([2]; A549 nude mice, 25 mg/kg): 1216.86 ± 295.20 mm3 | Inhibition Rate (%) ([2]; A549 nude mice, 50 mg/kg): 55.95% | Relative Tumor Proliferation Rate (T/C) ([2]; A549 nude mice, 50 mg/kg): 47.25% | Relative Tumor Volume (RTV) ([2]; A549 nude mice, 50 mg/kg): 7.67 ± 2.86 | Tumor Weight ([2]; A549 nude mice, 50 mg/kg): 1.06 ± 0.49 g | Tumor Volume (mm3) (d 1) ([2]; A549 nude mice, 50 mg/kg): 113.65 ± 11.57 mm3 | Tumor Volume (mm3) (d30) ([2]; A549 nude mice, 50 mg/kg): 856.65 ± 281.96 mm3 | Inhibition Rate (%) ([2]; A549 nude mice, 100 mg/kg): 66.53% | Relative Tumor Proliferation Rate (T/C) ([2]; A549 nude mice, 100 mg/kg): 33.04% | Relative Tumor Volume (RTV) ([2]; A549 nude mice, 100 mg/kg): 5.36 ± 3.01 | Tumor Weight ([2]; A549 nude mice, 100 mg/kg): 0.80 ± 0.43 g | Tumor Volume (mm3) (d 1) ([2]; A549 nude mice, 100 mg/kg): 118.69 ± 8.13 mm3 | Tumor Volume (mm3) (d30) ([2]; A549 nude mice, 100 mg/kg): 632.73 ± 350.89 mm3 | mouse weight compared with the model group ([2]; mouse, in vivo): no significant changes | Body Weight (g) (d1) ([2]; mouse, in vivo, 25 mg/kg): 21.68 ± 1.25 g | Body Weight (g) (d30) ([2]; mouse, in vivo, 25 mg/kg): 23.97 ± 1.01 g | Body Weight (g) (d1) ([2]; mouse, in vivo, 50 mg/kg): 21.99 ± 1.40 g | Body Weight (g) (d30) ([2]; mouse, in vivo, 50 mg/kg): 24.36 ± 1.73 g | Body Weight (g) (d1) ([2]; mouse, in vivo, 100 mg/kg): 20.57 ± 2.28 g | Body Weight (g) (d30) ([2]; mouse, in vivo, 100 mg/kg): 23.53 ± 1.63 g | Relative Tumor Proliferation Rate (T/C) [3, 10]: 38.66% | tumor growth inhibition rate [3, 10]: 61.77% | Relative Tumor Proliferation Rate (T/C) [3, 11]: 63.36% | tumor growth inhibition rate [3, 11]: 41.19% | tumor volume and relative tumor volume compared with the model group ([3]; U937, low, medium and high doses, P<0.05): significantly lower | Relative Tumor Proliferation Rate (T/C) [3, 12]: 49.30% | tumor growth inhibition rate [3, 12]: 53.03% | Inhibition Rate (%) ([3]; U937 nude mice, 12.5 mg/kg): 41.19% | Relative Tumor Proliferation Rate (T/C) ([3]; U937 nude mice, 12.5 mg/kg): 63.36% | Relative Tumor Volume (RTV) ([3]; U937 nude mice, 12.5 mg/kg): 10.80 ± 3.02 | Tumor Weight ([3]; U937 nude mice, 12.5 mg/kg): 1.14 ± 0.54 g | Tumor Volume (mm3) (d 1) ([3]; U937 nude mice, 12.5 mg/kg): 119.70 ± 18.30 mm3 | Tumor Volume (mm3) (d30) ([3]; U937 nude mice, 12.5 mg/kg): 1314.25 ± 479.76 mm3 | Inhibition Rate (%) ([3]; U937 nude mice, 25 mg/kg): 53.03% | Relative Tumor Proliferation Rate (T/C) ([3]; U937 nude mice, 25 mg/kg): 49.30% | Relative Tumor Volume (RTV) ([3]; U937 nude mice, 25 mg/kg): 8.40 ± 2.25 | Tumor Weight ([3]; U937 nude mice, 25 mg/kg): 0.91 ± 0.51 g | Tumor Volume (mm3) (d 1) ([3]; U937 nude mice, 25 mg/kg): 112.93 ± 27.42 mm3 | Tumor Volume (mm3) (d30) ([3]; U937 nude mice, 25 mg/kg): 939.79 ± 296.72 mm3 | Inhibition Rate (%) ([3]; U937 nude mice, 50 mg/kg): 61.77% | Relative Tumor Proliferation Rate (T/C) ([3]; U937 nude mice, 50 mg/kg): 38.66% | Relative Tumor Volume (RTV) ([3]; U937 nude mice, 50 mg/kg): 6.59 ± 0.90 | Tumor Weight ([3]; U937 nude mice, 50 mg/kg): 0.74 ± 0.18 g | Tumor Volume (mm3) (d 1) ([3]; U937 nude mice, 50 mg/kg): 112.85 ± 21.90 mm3 | Tumor Volume (mm3) (d30) ([3]; U937 nude mice, 50 mg/kg): 728.49 ± 51.66 mm3 | mouse weight compared with the model group ([3]; mouse, in vivo): no significant changes | Body Weight (g) (d1) ([3]; mouse, in vivo, 12.5 mg/kg): 20.84 ± 0.68 g | Body Weight (g) (d30) ([3]; mouse, in vivo, 12.5 mg/kg): 20.92 ± 0.63 g | Body Weight (g) (d1) ([3]; mouse, in vivo, 25 mg/kg): 20.91 ± 0.58 g | Body Weight (g) (d30) ([3]; mouse, in vivo, 25 mg/kg): 20.74 ± 0.352 g | Body Weight (g) (d1) ([3]; mouse, in vivo, 50 mg/kg): 21.16 ± 0.61 g | Body Weight (g) (d30) ([3]; mouse, in vivo, 50 mg/kg): 21.24 ± 0.50 g

— patent publication US20200163984A1, “USE OF ISOVALERYL SPIRAMYCIN I, II AND/OR III IN MANUFACTURING MEDICAMENT FOR TREATING AND/OR PREVENTING TUMOR, AND MEDICAMENT” (SHENYANG FUYANG PHARMACEUTICAL TECHNOLOGY CO., LTD., priority 2017, published 2020)
